Measured values published in patent US7371766B2, “Curcumin analogs with anti-tumor and anti-angiogenic properties” (Emory University, priority 1999, dated 2008).

What was measured:
EKVX = conditions: read-out: Median Growth Inhibitory Concentration (GI50), Non-Small Cell Lung Cancer, 48 hours
UACC-62 = conditions: read-out: Median Growth Inhibitory Concentration (GI50); UACC-62, Melanoma; 48 hours
MDA-N = conditions: read-out: Median Growth Inhibitory Concentration (GI50), Breast Cancer, 48 hours
OVCAR-4 = conditions: read-out: Median Growth Inhibitory Concentration (GI50); OVCAR-4, Ovarian Cancer; 48 hours
HOP-92 = conditions: read-out: Median Growth Inhibitory Concentration (GI50); HOP-92, Non-Small Cell Lung Cancer; 48 hours
PC-3 = conditions: read-out: Median Growth Inhibitory Concentration (GI50); PC-3, Prostate Cancer; 48 hours
SK-MEL-2 = conditions: read-out: Median Growth Inhibitory Concentration (GI50); SK-MEL-2, Melanoma; 48 hours
UACC-257 = conditions: read-out: Median Growth Inhibitory Concentration (GI50); UACC-257, Melanoma; 48 hours
SN12C = conditions: read-out: Median Growth Inhibitory Concentration (GI50), Renal Cancer, 48 hours
MDA-MB-435 = conditions: read-out: Median Growth Inhibitory Concentration (GI50); MDA-MB-435, Breast Cancer; 48 hours
SF-268 = conditions: read-out: Median Growth Inhibitory Concentration (GI50); SF-268, CNS Cancer; 48 hours
CAKI-1 = conditions: read-out: Median Growth Inhibitory Concentration (GI50); CAKI-1, Renal Cancer; 48 hours
A549 = conditions: read-out: Median Growth Inhibitory Concentration (GI50); A549, Non-Small Cell Lung Cancer; 48 hours
HOP-62 = conditions: read-out: Median Growth Inhibitory Concentration (GI50); HOP-62, Non-Small Cell Lung Cancer; 48 hours
SR = conditions: read-out: Median Growth Inhibitory Concentration (GI50), Leukemia, 48 hours
HCC-2998 = conditions: read-out: Median Growth Inhibitory Concentration (GI50); HCC-2998, Colon Cancer; 48 hours
NCI-H522 = conditions: read-out: Median Growth Inhibitory Concentration (GI50); NCI-H522, Non-Small Cell Lung Cancer; 48 hours
T-47D = conditions: read-out: Median Growth Inhibitory Concentration (GI50), Breast Cancer, 48 hours
SNB-19 = conditions: read-out: Median Growth Inhibitory Concentration (GI50); SNB-19, CNS Cancer; 48 hours
SK-MEL-28 = conditions: read-out: Median Growth Inhibitory Concentration (GI50); SK-MEL-28, Melanoma; 48 hours
NCI/ADR-RES = conditions: read-out: Median Growth Inhibitory Concentration (GI50), Breast Cancer, 48 hours
MDA-MB-231 = conditions: read-out: Median Growth Inhibitory Concentration (GI50); MDA-MB-231, Breast Cancer; 48 hours
U251 = conditions: read-out: Median Growth Inhibitory Concentration (GI50); U251, CNS Cancer; 48 hours
UO-31 = conditions: read-out: Median Growth Inhibitory Concentration (GI50); UO-31, Renal Cancer; 48 hours
SF-295 = conditions: read-out: Median Growth Inhibitory Concentration (GI50); SF-295, CNS Cancer; 48 hours
K-562 = conditions: read-out: Median Growth Inhibitory Concentration (GI50); K-562, Leukemia; 48 hours
OVCAR-3 = conditions: read-out: Median Growth Inhibitory Concentration (GI50); OVCAR-3, Ovarian Cancer; 48 hours
A498 = conditions: read-out: Median Growth Inhibitory Concentration (GI50); A498, Renal Cancer; 48 hours
MCF-7 = conditions: read-out: Median Growth Inhibitory Concentration (GI50); MCF-7, Breast Cancer; 48 hours

| Compound | GI50 (EKVX) | GI50 (UACC-62) | GI50 (MDA-N) | GI50 (OVCAR-4) | GI50 (HOP-92) | GI50 (PC-3) | GI50 (SK-MEL-2) | GI50 (UACC-257) | GI50 (SN12C) | GI50 (MDA-MB-435) | GI50 (SF-268) | GI50 (CAKI-1) | GI50 (A549) | GI50 (HOP-62) | GI50 (SR) | GI50 (HCC-2998) | GI50 (NCI-H522) | GI50 (T-47D) | GI50 (SNB-19) | GI50 (SK-MEL-28) | further results |
| --- | --- | --- | --- | --- | --- | --- | --- | --- | --- | --- | --- | --- | --- | --- | --- | --- | --- | --- | --- | --- | --- |
| 3,5-Bis(2-hydroxybenzylidene)-sulfone [EF11] | 30.6 µM | 21.3 µM | 36.9 µM | 28.7 µM | 23.5 µM | 34.9 µM | 24 µM | 29.8 µM | 34.2 µM | 31.4 µM | 24.6 µM | 29.2 µM | 38.7 µM | 83.3 µM | 21.5 µM | 20.5 µM | 33.3 µM | 24.7 µM | 48 µM | 42.5 µM | GI50 (NCI/ADR-RES): 86.1 µM; GI50 (MDA-MB-231): 25.6 µM; GI50 (U251): 35.7 µM; GI50 (UO-31): 28.4 µM; GI50 (SF-295): 53.8 µM; GI50 (K-562): 27.4 µM; GI50 (OVCAR-3): 41.8 µM; GI50 (A498): 34.2 µM; GI50 (MCF-7): 28.7 µM |
| C(=C\c1ccccc1)/S/C=C/c1ccccc1 [EF15] | 64 µM | 66.7 µM | 67.8 µM | > 100 µM | > 100 µM | > 100 µM | 31.7 µM | 55.4 µM | > 100 µM | 61.2 µM | > 100 µM | > 100 µM | > 100 µM | > 100 µM | 52 µM | 31.6 µM | 69.9 µM | 18.5 µM | > 100 µM | 83.7 µM | GI50 (NCI/ADR-RES): > 100 µM; GI50 (MDA-MB-231): > 100 µM; GI50 (U251): 95.1 µM; GI50 (UO-31): 96.8 µM; GI50 (SF-295): 80.9 µM; GI50 (K-562): 78.5 µM; GI50 (OVCAR-3): > 100 µM; GI50 (A498): 23.3 µM; GI50 (MCF-7): 44.6 µM |
